The values that follow come from ChEMBL document CHEMBL3045350, “Inheritance of resistance to a new non-steroidal ecdysone agonist, fufenozide, in the diamondback moth, Plutella xylostella (Lepidoptera: Plutellidae)” (2010).

≈ marks a conversion by molar mass, not a printed value.

Common to all, as to type: functional
Experiment [1] has as its system Plutella xylostella. As to the kind of experiment: Resistant ratio, ratio of LC50 for F1 generation of third-instar larvae of Plutella xylostella (diamondback moth) to LC50 for fufenozide-susceptible third-instar larvae of Plutella xylostella.
Experiment [2] relates to Plutella xylostella. Nature of the experiment: Insecticidal activity against backcrossed third-instar larvae of Plutella xylostella (diamondback moth) in cabbage leaf assessed as mortality after 96 hr by leaf dip method. Particulars: foliar.
In experiment [3] the test system is Plutella xylostella. As to the kind of experiment: Insecticidal activity against F2 generation of third-instar larvae of Plutella xylostella (diamondback moth) in cabbage leaf assessed as mortality after 96 hr by leaf dip method. Particulars: foliar.
Experiment [4] has as its system Plutella xylostella. Nature of the experiment: Insecticidal activity against F1 pooled generation of third-instar larvae of Plutella xylostella (diamondback moth) in cabbage leaf assessed as mortality after 96 hr by leaf dip method. Particulars: foliar.
Experiment [5] relates to Plutella xylostella. Nature of the experiment: Insecticidal activity against F'1 generation of third-instar larvae of Plutella xylostella (diamondback moth) in cabbage leaf assessed as mortality after 96 hr by leaf dip method. To be noted: foliar.
For experiment [6], the system named is Plutella xylostella. Nature of the experiment: Insecticidal activity against F1 generation of third-instar larvae of Plutella xylostella (diamondback moth) in cabbage leaf assessed as mortality after 96 hr by leaf dip method. To be noted: foliar.
Experiment [7] relates to Plutella xylostella. As to the kind of experiment: Insecticidal activity against fufenozide-susceptible third-instar larvae of Plutella xylostella (diamondback moth) in cabbage leaf assessed as mortality after 96 hr by leaf dip method. Particulars: foliar.
Experiment [8] relates to Plutella xylostella. As to the kind of experiment: Insecticidal activity against fufenozide-resistant 39th generation of third-instar larvae of Plutella xylostella (diamondback moth) in cabbage leaf assessed as mortality after 96 hr by leaf dip method. Particulars: foliar.
Experiment [9] concerns Plutella xylostella. As to the kind of experiment: Resistant ratio, ratio of LC50 for backcrossed third-instar larvae of Plutella xylostella (diamondback moth) to LC50 for fufenozide-susceptible third-instar larvae of Plutella xylostella.
Experiment [10] deals with Plutella xylostella. Nature of the experiment: Resistant ratio, ratio of LC50 for F2 generation of third-instar larvae of Plutella xylostella (diamondback moth) to LC50 for fufenozide-susceptible third-instar larvae of Plutella xylostella.
Experiment [11] has as its system Plutella xylostella. As to the kind of experiment: Resistant ratio, ratio of LC50 for F1 pooled generation of third-instar larvae of Plutella xylostella (diamondback moth) to LC50 for fufenozide-susceptible third-instar larvae of Plutella xylostella.
Experiment [12] has as its system Plutella xylostella. As to the kind of experiment: Resistant ratio, ratio of LC50 for F'1 generation of third-instar larvae of Plutella xylostella (diamondback moth) to LC50 for fufenozide-susceptible third-instar larvae of Plutella xylostella.

A word on the LC50: it is the concentration lethal to half of the exposed cells or organisms. For `Cc1cc(C)cc(C(=O)N(NC(=O)c2ccc3c(c2C)OC(C)C3)C(C)(C)C)c1` (configuration not stated) [FUXIAN], the RatioLC50 in the experiment with Plutella xylostella [1] is 1.76; with Plutella xylostella [9], 2.33; with Plutella xylostella [10] it was 2.24; in the experiment with Plutella xylostella [11], 2.61; in the experiment with Plutella xylostella [12], 2.09. The LC50 in the experiment with Plutella xylostella [2] was determined as 6.93 µg/mL (≈ 17.6 µM); in the experiment on Plutella xylostella [3] it was 5 µg/mL (≈ 12.7 µM); in the experiment on Plutella xylostella [4] it was 5.82 µg/mL (≈ 14.8 µM); with Plutella xylostella [5], 6.22 µg/mL (≈ 15.8 µM); with Plutella xylostella [6], 5.22 µg/mL (≈ 13.2 µM); in the experiment with Plutella xylostella [7], 2.23 µg/mL (≈ 5.66 µM). Moreover, the LC50 with Plutella xylostella [8] was 1480 µM.
